The numbers were not newly measured in US20250127863A1, “ANTIMICROBIAL PEPTIDE FOR ONYCHOMYCOSIS” (CBMR SCIENTIFIC NANOSCIENCE B.V., priority 2019, published 2025), which cites them from elsewhere.

Molecules are shown by their SMILES.

Data set [1] concerns onychomycosis. Particulars: topical, specialist setting; after 48 weeks of treatment; cited from earlier work.
Data set [2] concerns onychomycosis. Particulars: systemic use; cited from earlier work.

Regarding `Clc1ccc(C(Cn2ccnc2)OCc2ccsc2Cl)c(Cl)c1` (stereo not drawn) [tioconazole], the cure rates in data set [1] was 22%.
`CN(C/C=C/C#CC(C)(C)C)Cc1cccc2ccccc12` [terbinafine]: the “(mycological) cure” value in data set [2] was 70.9%.
As to `C=C1CCN([C@H](C)[C@](O)(Cn2cncn2)c2ccc(F)cc2F)CC1` [efinaconazole], the cure rates in data set [1] is 15.2-17.8%.
